Experimental data published in patent US5391540A, “Substituted pyridine compounds” (Rohm and Haas Company, priority 1993, dated 1995).
“And” between values parts separate entries of the source, which are not always exact repeats. Equal entries are not always repeated.

Assays:
Assay type in all cases: in vivo
Annual Bluegrass = assay: Pre-emergent herbicidal activity (Table A); conditions: pre-emergence, Anbg, 11.2 kg/ha, 10-14 days, read-out: herbicidal rating (% inhibition)
Procedure, shortened: (§1)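 Compound incorporated into the cover-soil layer over sown seed at a rate equivalent to 11.2 kg/ha (acetone or water carrier). Greenhouse growth with watering as needed; ratings reflect percent inhibition per species, recorded around day 11 (range 10–14).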

Indian Mustard = assay: Pre-emergent herbicidal activity (Table A); conditions: Brassica juncea, pre-emergence, Inmu, 11.2 kg/ha, 10-14 days, read-out: herbicidal rating (% inhibition)
Procedure, shortened: as §1

Seedling Johnsongrass = assay: Pre-emergent herbicidal activity (Table A); conditions: Sorghum halepense, pre-emergence, Sejg, 11.2 kg/ha, 10-14 days, read-out: herbicidal rating (% inhibition)
Procedure, shortened: as §1

Wild Buckwheat = assay: Pre-emergent herbicidal activity (Table A); conditions: Fallopia convolvulus, pre-emergence, Wibw, 11.2 kg/ha, 10-14 days, read-out: herbicidal rating (% inhibition)
Procedure, shortened: as §1

Hese = assay: plant injury after spraying emerged plants (Table D); design: scale not given here
Procedure, shortened: (§2)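 Injury to emerged plants was assessed after spraying. Plants came from seeds or propagules sown into sterilized, sieved silt-loam topsoil under a 1.27 cm layer of 50% topsoil with peat moss, vermiculite and wetting agent, then kept on greenhouse capillary mats with subirrigation.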

Lacg = assay: as above; design: scale not given here
Procedure, shortened: as §2

Prmi = assay: as above; design: scale not given here
Procedure, shortened: as §2

Vele = assay: as above; design: scale not given here
Procedure, shortened: as §2

Wibw = assay: as above; design: scale not given here
Procedure, shortened: as §2

Cotz = assay: as above; design: scale not given here
Excerpt: (§3) Topsoil (silt loam) is sieved through a screen having 1.27 cm openings. In some of the tests the soil was mixed with fertilizer (1225 g/cu. m of 12/5/9 containing isobutylidene diurea), while in other tests the fertilizer was omitted. This mixture is steam sterilized and then placed in aluminum pans 6.985 cm deep having ten holes in the bottom each 0.635 cm in diameter. The soil mixture is compacted to a depth of 1.27 cm. from the top of the pan. A predetermined number of seeds of each of several dicotyledonous and monocotyledonous annual plant species and/or vegetative propagules for the perennial plant species are placed on the soil and pressed into the soil surface. The seeds and/or vegetative propagules are covered with 1.27 cm of a mixture of 50% topsoil and 50% of a mixture of Canadian sphagnum peat moss, vermiculite and a wetting agent. The pans are then placed on a capillary mat on a greenhouse bench and subirrigated as needed. After the plants reach the desired stage (9 to 14 days, 1 to 3 true leaf stage), each pan (except the control pans) is removed to a spraying chamber and sprayed by means of an atomizer, operating at a spray pressure of 170.3 kPa ([…]) at the application rates noted in Table D. In the spray solution is an amount of an emulsifying agent mixture (35% butylamine salt of dodecylbenzenesulfonic acid and 65% tall oil condensed with ethylene oxide in the ratio of 11 mols of ethylene oxide/mol of tall oil) to give a spray solution or suspension. The spray solution or suspension contains a sufficient amount of the candidate chemical in order to give application rates of the active ingredient corresponding to those shown in Table D below while applying a total amount of solution or suspension equivalent to 1870 L/Ha (200 gallons/acre). The pans are returned to the greenhouse and watered as before and the injury to the plants as compared to the control pans is observed at approximately 10-14 days (usually 11 days).
(§4) In the following Table D the legends used to identify the plant species are the same as those used in the preceding Table B.

Jiwe = assay: as above; design: scale not given here
Excerpt: as §3, §4

Rape = assay: as above; design: scale not given here
Excerpt: as §3, §4

COC(=O)c1c(OC)nc(C(F)(F)F)c(C2=NCCCS2)c1CC(C)C [Compound 98, 3-pyridinecarboxylic acid, 5-(5,6-dihydro-4H-1,3-thiazin-2-yl)-2-methoxy-4-(2-methylpropyl)-6-(trifluoromethyl)-, methyl ester]
3: plant injury rating, Hese (Hese; 5.6050 kg/ha) | plant injury rating, Lacg (Lacg; 1.1210 kg/ha) | plant injury rating, Lacg (Lacg; 5.6050 kg/ha) | plant injury rating, Vele (Vele; 5.6050 kg/ha) | plant injury rating, Wibw (Wibw; 5.6050 kg/ha) | plant injury rating, Jiwe (Jiwe; 1.1210 kg/ha) | plant injury rating, Jiwe (Jiwe; 5.6050 kg/ha) | plant injury rating, Rape (Rape; 5.6050 kg/ha)
1: plant injury rating, Hese (Hese; 0.0701 kg/ha) | plant injury rating, Prmi (Prmi; 0.2803 kg/ha) | plant injury rating, Vele (Vele; 0.0701 kg/ha) | plant injury rating, Wibw (Wibw; 1.1210 kg/ha) | plant injury rating, Cotz (Cotz; 1.1210 kg/ha) | plant injury rating, Rape (Rape; 1.1210 kg/ha)
2: plant injury rating, Hese (Hese; 0.2803 kg/ha) | plant injury rating, Hese (Hese; 1.1210 kg/ha) | plant injury rating, Lacg (Lacg; 0.2803 kg/ha) | plant injury rating, Prmi (Prmi; 5.6050 kg/ha) | plant injury rating, Vele (Vele; 0.2803 kg/ha) | plant injury rating, Vele (Vele; 1.1210 kg/ha) | plant injury rating, Cotz (Cotz; 5.6050 kg/ha) | plant injury rating, Jiwe (Jiwe; 0.0701 kg/ha) | plant injury rating, Jiwe (Jiwe; 0.2803 kg/ha)
75 to 100%: inhibition at 11200 g/ha (Annual Bluegrass) | inhibition at 11200 g/ha (Indian Mustard) | inhibition at 11200 g/ha (Seedling Johnsongrass) | inhibition at 11200 g/ha (Wild Buckwheat)
0: plant injury rating, Lacg (Lacg; 0.0701 kg/ha) | plant injury rating, Prmi (Prmi; 0.0701 kg/ha) | plant injury rating, Wibw (Wibw; 0.0701 kg/ha) | plant injury rating, Wibw (Wibw; 0.2803 kg/ha) | plant injury rating, Cotz (Cotz; 0.0701 kg/ha) | plant injury rating, Cotz (Cotz; 0.2803 kg/ha) | plant injury rating, Rape (Rape; 0.0701 kg/ha) | plant injury rating, Rape (Rape; 0.2803 kg/ha)

COC(=O)c1c(OC)nc(C(F)(F)F)c(C(=O)Cl)c1CC1CC1 [Compound 113, 3-pyridinecarboxylic acid, 5-(chlorocarbonyl)-4-(cyclopropylmethyl)-2-methoxy-6-(trifluoromethyl)-, methyl ester]
0 to 24%: inhibition at 11200 g/ha (Indian Mustard)
75 to 100%: inhibition at 11200 g/ha (Annual Bluegrass) | inhibition at 11200 g/ha (Seedling Johnsongrass)
0: plant injury rating, Hese (Hese; 0.2803 kg/ha) | plant injury rating, Hese (Hese; 1.1210 kg/ha) | plant injury rating, Lacg (Lacg; 0.2803 kg/ha) | plant injury rating, Lacg (Lacg; 1.1210 kg/ha) | plant injury rating, Prmi (Prmi; 0.2803 kg/ha) | plant injury rating, Prmi (Prmi; 1.1210 kg/ha) | plant injury rating, Prmi (Prmi; 5.6050 kg/ha) | plant injury rating, Vele (Vele; 0.2803 kg/ha) | plant injury rating, Vele (Vele; 1.1210 kg/ha) | plant injury rating, Wibw (Wibw; 0.2803 kg/ha) | plant injury rating, Wibw (Wibw; 1.1210 kg/ha) | plant injury rating, Cotz (Cotz; 0.2803 kg/ha) | plant injury rating, Cotz (Cotz; 1.1210 kg/ha) | plant injury rating, Cotz (Cotz; 5.6050 kg/ha) | plant injury rating, Rape (Rape; 0.2803 kg/ha) | plant injury rating, Rape (Rape; 1.1210 kg/ha)
25 to 49%: inhibition at 11200 g/ha (Wild Buckwheat)
1: plant injury rating, Hese (Hese; 5.6050 kg/ha) | plant injury rating, Vele (Vele; 5.6050 kg/ha) | plant injury rating, Wibw (Wibw; 5.6050 kg/ha) | plant injury rating, Rape (Rape; 5.6050 kg/ha)
2: plant injury rating, Lacg (Lacg; 5.6050 kg/ha)

COC(=O)c1c(OC)nc(C(F)(F)F)c(C2=NCCS2)c1CC(C)C [Compound 50, 3-pyridinecarboxylic acid, 5-(4,5-dihydro-2-thiazolyl)-2-methoxy-4-(2-methylpropyl)-6-(trifluoromethyl)-, methyl ester]
2 and 3: plant injury rating, Jiwe (Jiwe; 1.1210 kg/ha)
1: plant injury rating, Prmi (Prmi; 0.2803 kg/ha) | plant injury rating, Wibw (Wibw; 0.0701 kg/ha) | plant injury rating, Cotz (Cotz; 0.0701 kg/ha)
0: plant injury rating, Prmi (Prmi; 0.0701 kg/ha)
3: plant injury rating, Hese (Hese; 5.3808 kg/ha) | plant injury rating, Lacg (Lacg; 0.2803 kg/ha) | plant injury rating, Lacg (Lacg; 1.1210 kg/ha) | plant injury rating, Lacg (Lacg; 5.3808 kg/ha) | plant injury rating, Vele (Vele; 5.3808 kg/ha) | plant injury rating, Wibw (Wibw; 0.2803 kg/ha) | plant injury rating, Wibw (Wibw; 5.3808 kg/ha) | plant injury rating, Cotz (Cotz; 5.3808 kg/ha) | plant injury rating, Jiwe (Jiwe; 5.3808 kg/ha) | plant injury rating, Rape (Rape; 1.1210 kg/ha) | plant injury rating, Rape (Rape; 5.3808 kg/ha)
2: plant injury rating, Hese (Hese; 0.0701 kg/ha) | plant injury rating, Vele (Vele; 0.0701 kg/ha) | plant injury rating, Cotz (Cotz; 0.2803 kg/ha) | plant injury rating, Jiwe (Jiwe; 0.0701 kg/ha) | plant injury rating, Jiwe (Jiwe; 0.2803 kg/ha)

COC(=O)c1c(O)nc(C(F)(F)F)c(C(=O)OC)c1CC(C)C [Compound 1, 3,5-pyridinedicarboxylic acid, 2-hydroxy-4-(2-methylpropyl)-6-(trifluoromethyl)-, dimethyl ester]
0: plant injury rating, Prmi (Prmi; 0.0701 kg/ha) | plant injury rating, Prmi (Prmi; 0.2803 kg/ha) | plant injury rating, Wibw (Wibw; 0.0701 kg/ha) | plant injury rating, Cotz (Cotz; 0.0701 kg/ha) | plant injury rating, Jiwe (Jiwe; 0.0701 kg/ha)
2: plant injury rating, Hese (Hese; 0.2803 kg/ha) | plant injury rating, Hese (Hese; 1.1210 kg/ha) | plant injury rating, Prmi (Prmi; 1.1210 kg/ha) | plant injury rating, Vele (Vele; 0.2803 kg/ha) | plant injury rating, Vele (Vele; 1.1210 kg/ha) | plant injury rating, Wibw (Wibw; 1.1210 kg/ha) | plant injury rating, Jiwe (Jiwe; 1.1210 kg/ha)
2 and 1: plant injury rating, Jiwe (Jiwe; 0.2803 kg/ha)
3: plant injury rating, Lacg (Lacg; 0.0701 kg/ha) | plant injury rating, Lacg (Lacg; 1.1210 kg/ha) | plant injury rating, Lacg (Lacg; 5.3808 kg/ha) | plant injury rating, Prmi (Prmi; 5.3808 kg/ha)
1: plant injury rating, Hese (Hese; 0.0701 kg/ha) | plant injury rating, Vele (Vele; 0.0701 kg/ha) | plant injury rating, Wibw (Wibw; 0.2803 kg/ha) | plant injury rating, Rape (Rape; 0.0701 kg/ha)
4 and 3: plant injury rating, Jiwe (Jiwe; 5.3808 kg/ha)
